Assay: gradient 5% acetonitrile 3 min, to 50% in 2 min, to 85% in 15 min, held 3 min, 100 µL/min
Conditions: column: Zorbax Extend-C18 2.1 x 50 mm; eluents: water / acetonitrile, 0.1% formic acid
Summary of the method: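 Retention times of pure standards were taken from adduct peaks that were selected by computer and manually inspected. Over 3 months, mixtures of ~100 molecules were run by HPLC–quadrupole time-of-flight mass spectrometry in positive and negative ionization mode. The Zorbax Extend-C18 column (2.1 × 50 mm, 1.8 μm) ran at 100 μL/min in water and acetonitrile, each containing 0.1% formic acid, with 40 μL dead volume and 900 μL dwell volume.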

In the case of `Cc1ccc(C(=O)Nc2ccc3c(c2)CCC(=O)N3)s1`, the RP-LC retention time is reported as 680 s.

For `CCOC(=O)c1cn(CC(=O)Nc2ccc3c(c2)OCO3)c2nc(C)ccc2c1=O`, the RP-LC retention time was 715 s.

`Cc1cc2nc(SCc3noc(CCC(=O)Nc4nc(-c5ccccc5)cs4)n3)[nH]c2cc1C` showed an RP-LC retention time of 814 s.

Work on `CS(=O)(=O)Nc1ccc(C2(C(=O)NCc3cccc(Cl)c3)CCCCC2)cc1` yielded an RP-LC retention time of 948 s.

With `Cc1ccc(C(=O)NC2CCN(c3nnc4ccc(C(F)(F)F)cn34)CC2)cc1` the RP-LC retention time was 802 s.

Work on `Cc1ccc(NC(=O)C2C(=O)N(CCO)C3(C)CC2c2ccccc2O3)cc1` (stereo not drawn) yielded an RP-LC retention time of 727 s.

For `CCN1c2ccccc2C(=O)NC12CCN(C(=O)Nc1ccc3c(c1)OCO3)CC2`, the RP-LC retention time was 737 s.

For `Cc1cccc2c1ncn1c(=O)n(CC(=O)NCc3ccccc3Cl)nc21`, the RP-LC retention time was 627 s.

`COc1ccc(-n2cc(C(=O)OCc3ccccn3)c3ccccc3c2=O)cc1` gave an RP-LC retention time of 854 s.

In the case of `CCc1ccc(CNC(=O)C2CCCN(C(=O)c3[nH]c(C)c(C(=O)OC(C)C)c3C)C2)cc1` (stereo not drawn), the RP-LC retention time is reported as 959 s.

`CCOC(=O)c1ccc(NC(=O)Cn2c(C)cc(=O)c3cc(Br)ccc32)cc1` showed an RP-LC retention time of 623 s.

With `O=C(NCCCn1nc(-c2ccncc2)ccc1=O)C1c2ccccc2Oc2ccccc21` the RP-LC retention time was 629 s.

In the case of `CCCNC(=O)N1CCN(c2nc(CC(C)C)c3c(c2C#N)CC(C)(C)OC3)CC1`, the RP-LC retention time is reported as 1090 s.

`O=C1CC(c2cccc(Cl)c2)Cc2c1cnn2-c1nc2ccccc2[nH]1` (stereo not drawn) gave an RP-LC retention time of 1030 s.

Work on `Cc1cccc(-n2c(=O)c3sccc3n(Cc3nc(-c4ccccc4)no3)c2=O)c1` yielded an RP-LC retention time of 1010 s.

Work on `Cc1ccccc1-n1ccn(Cc2nc(-c3ccc(Cl)cc3)no2)c(=O)c1=O` yielded an RP-LC retention time of 912 s.

For `COc1ccccc1CCNC(=O)C1CN(C(=O)c2ccc(F)c(F)c2)C1`, the RP-LC retention time was 731 s.

Molecule `O=C(CN1C(=O)CCCc2cc(S(=O)(=O)N3CCCCC3)ccc21)Nc1ccc(Cl)cc1F` has an RP-LC retention time of 995 s.

`CC1CCCCN1S(=O)(=O)c1ccc2nc(N3CCN(c4ccccc4)CC3)ccc2c1` (stereo not drawn) gave an RP-LC retention time of 1100 s.

With `O=C(c1ccc(F)cc1)N1CCN(c2cnn3c(C4CC4)nnc3c2)CC1` the RP-LC retention time was 636 s.

In the case of `Cc1ccnc(N2CCCC(C(=O)NC3CCCCC3)C2)n1` (stereo not drawn), the RP-LC retention time is reported as 709 s.

For `COc1cc(C2CC(=O)c3c([nH]c(C(=O)OC4CCCCCC4)c3C)C2)cc(OC)c1OC` (stereo not drawn), the RP-LC retention time was 1160 s.

For `O=C(NCc1ccccc1)C1CCCN(S(=O)(=O)c2c[nH]c(C(=O)N3CCCC3)c2)C1` (stereo not drawn), the RP-LC retention time was 748 s.

`CCC(=O)NCc1nc2c(n1C)CN(S(=O)(=O)Cc1ccc(Cl)cc1)CC2` gave an RP-LC retention time of 539 s.

Work on `Cc1ccc2c(c1)NN=C(C(=O)N1CCOCC1)S2(=O)=O` yielded an RP-LC retention time of 639 s.

Work on `O=C(Nc1ccc(Cl)cc1)Nc1cccc2nsnc12` yielded an RP-LC retention time of 1100 s.

Molecule `CC(C)(C)C(=O)N1CCC(C(=O)Nc2nnc(CCCc3ccccc3)s2)CC1` has an RP-LC retention time of 893 s.

For `O=C(Nc1ccccc1Br)C1CCCN(C(=O)c2ccccc2F)C1` (stereo not drawn), the RP-LC retention time was 860 s.

Molecule `CC1CCN(C(=O)c2ccc(OCC3CCCN(C(=O)c4ccc(C#N)cc4)C3)cc2)CC1` (stereo not drawn) has an RP-LC retention time of 956 s.

With `Cc1ccc(NC(=O)N2CCCC(CCC(=O)NCCC3=CCCCC3)C2)cc1` (stereo not drawn) the RP-LC retention time was 947 s.

With `COc1ccc2nc(C(=O)N(C)Cc3ccccc3)cn2n1` the RP-LC retention time was 790 s.

Molecule `Cc1ccc(N2CCC(NC(=O)Cc3ccccc3C)C2=O)cc1C` (stereo not drawn) has an RP-LC retention time of 893 s.

`COc1cc(C(=O)N(Cc2ccc(N(C)C)cc2)C2CCS(=O)(=O)C2)cc(OC)c1OC` (stereo not drawn) gave an RP-LC retention time of 634 s.

Molecule `COc1ccc(CC(=O)Nc2nc3c(s2)COCC3)cc1OC` has an RP-LC retention time of 638 s.

`COc1ccc(NC(=O)Cn2c(N3CCCCC3)nc(C)cc2=O)c(OC)c1` showed an RP-LC retention time of 680 s.

`CCc1noc([C@@H]2CC(F)(F)CN2C(=O)c2coc(C)n2)n1` gave an RP-LC retention time of 732 s.

In the case of `CCc1noc(-c2ccc(-n3ncc(C(=O)N4CCCCCC4)c3C)nc2)n1`, the RP-LC retention time is reported as 1010 s.

`O=C(CC1CCN(C(=O)c2ccc3oc(C4CC4)nc3c2)CC1)N1CCOCC1` showed an RP-LC retention time of 619 s.

Molecule `O=c1ccn(-c2cccc(F)c2)nc1-c1nc(-c2ccccc2F)no1` has an RP-LC retention time of 846 s.

`Cc1ccccc1NC(=O)CN1C(=O)CCc2cc(Br)ccc21` gave an RP-LC retention time of 884 s.

Molecule `Cc1cc(C)cc(N2C(=O)C3N=NN(c4ccc(C)c(Cl)c4)C3C2=O)c1` (stereo not drawn) has an RP-LC retention time of 1170 s.

In the case of `O=C(Cc1csc(SCc2cccc(Cl)c2)n1)Nc1ccc2c(c1)OCCO2`, the RP-LC retention time is reported as 953 s.

With `COc1ccc(-c2csc(C(=O)n3nc(C)cc3C)c2-n2cccc2)cc1` the RP-LC retention time was 1300 s.

`CCOC(=O)N1CCN(C(=O)CSc2ccc3nnc(-c4cccnc4)n3n2)CC1` gave an RP-LC retention time of 585 s.

Work on `Cc1cc(C(=O)NCC2CCN(C(=O)Nc3ccc(F)cc3)CC2)c(C)o1` yielded an RP-LC retention time of 750 s.

Molecule `CS(=O)(=O)c1ccc(CC(=O)N2CCN(c3ccc(=O)n(-c4ccc(Cl)cc4)n3)CC2)cc1` has an RP-LC retention time of 739 s.

Molecule `Cc1cccc(S(=O)(=O)N2C[C@H](c3nc(-c4ccncc4)no3)[C@@H](C)C2)c1` has an RP-LC retention time of 939 s.

Work on `CCn1nnc2ccc(-c3noc(-c4ccc(C#N)cc4)n3)cc21` yielded an RP-LC retention time of 971 s.

With `COC(=O)c1c(C)[nH]c(C(=O)N2CCC(CC(=O)N3CCN(c4cccc(C)c4)C(C)C3)CC2)c1C` (stereo not drawn) the RP-LC retention time was 754 s.

In the case of `Cc1ccc(S(=O)(=O)Nc2cc(-c3cn4ccccc4n3)ccc2C)cc1`, the RP-LC retention time is reported as 668 s.

`CCOc1cccc(-c2noc(Cn3nc(-c4ccc(C)cc4)ccc3=O)n2)c1` showed an RP-LC retention time of 1170 s.

Molecule `Cc1ccc(CC(=O)Nc2ccc(-c3nc(Cn4cccn4)c(C)o3)cc2)cc1` has an RP-LC retention time of 880 s.

`O=C(Cn1nc(C(=O)N2CCCCC2)c2ccccc21)Nc1nc2ccc(Cl)cc2s1` gave an RP-LC retention time of 969 s.

In the case of `CC1(C(=O)NCc2ccc(Br)cc2)Oc2cccnc2NC1=O` (stereo not drawn), the RP-LC retention time is reported as 733 s.

`O=C(CSc1nnc2ccccn12)Nc1nc(-c2ccccc2)ns1` showed an RP-LC retention time of 695 s.

In the case of `COCCCNC(=O)C1c2ccccc2CC(=O)N1C(C)C` (stereo not drawn), the RP-LC retention time is reported as 651 s.

For `O=C(Cc1cc(-c2ccc(Cl)cc2)on1)NCCCn1ccnc1`, the RP-LC retention time was 582 s.

In the case of `Cc1ccc2c(c1)N(S(C)(=O)=O)CCC(C(=O)NC1CCCCC1)O2` (stereo not drawn), the RP-LC retention time is reported as 914 s.

In the case of `COc1cccc(CNC(=O)C2CCCN(C(=O)C3Sc4ccccc4NC3=O)C2)c1` (stereo not drawn), the RP-LC retention time is reported as 737 s.

Work on `COC(=O)c1c(C)c(C(=O)C(C)N(CCC(C)C)C(=O)c2cccc(F)c2)c(C)n1C` (stereo not drawn) yielded an RP-LC retention time of 1100 s.

`COc1ccc2c(c1)-c1nc(NC(=O)c3cc(Cl)ccc3OC)sc1CC2` gave an RP-LC retention time of 1300 s.

`CCN(CC)C(=O)[C@]1(c2ccccc2)C[C@@H]1CN` gave an RP-LC retention time of 655 s.

`Cc1ccc(S(=O)(=O)NCC(c2ccccc2)N(C)C)cc1` (stereo not drawn) gave an RP-LC retention time of 642 s.

Work on `COc1ccc(C2(C(=O)N3CCCC(c4nnnn4C)C3)CC2)cc1` (stereo not drawn) yielded an RP-LC retention time of 706 s.

With `COc1cccc(-c2noc(Cc3nnc(-c4ccc(Cl)cc4)o3)n2)c1OC` the RP-LC retention time was 973 s.

With `CCn1nc2c(S(=O)(=O)N3CCN(c4ccc(F)cc4)CC3)cccn2c1=O` the RP-LC retention time was 1250 s.

Work on `Cc1nc2c(ccc3nc(NC(=O)c4cc(=O)c5ccccc5o4)sc32)s1` yielded an RP-LC retention time of 828 s.

In the case of `COc1ccc(S(=O)(=O)N2CCCC(C(=O)NCCO)C2)cc1C` (stereo not drawn), the RP-LC retention time is reported as 669 s.

`O=C(CCc1nc2ccccc2s1)N1CCC(c2noc(-c3ccncc3)n2)C1` (stereo not drawn) gave an RP-LC retention time of 760 s.

In the case of `Cc1ccsc1CCNC(=O)Cn1nc(C(=O)N2CCCC2)c2ccccc21`, the RP-LC retention time is reported as 824 s.

`CCOc1ccc(NC(=O)c2cnc(N3CCSCC3)nc2N)cc1` gave an RP-LC retention time of 712 s.

With `COc1ccc(OC)c(S(=O)(=O)N2CCC(n3cnnc3C)CC2)c1` the RP-LC retention time was 652 s.

`Cc1ccc(C)c(-n2c(-c3ccc(Cl)cc3)cn3c4c(=O)n(C)c(=O)n(C)c4nc23)c1` gave an RP-LC retention time of 1110 s.

Molecule `O=S(=O)(NCCc1c[nH]c2ncccc12)c1ccccc1Br` has an RP-LC retention time of 630 s.

In the case of `N#Cc1ccc(S(=O)(=O)N2CCC(Cc3nc(-c4cccnc4)n[nH]3)C2)cc1` (stereo not drawn), the RP-LC retention time is reported as 634 s.

For `O=C(O)C1CCCN(c2cn[nH]c(=O)c2)C1` (stereo not drawn), the RP-LC retention time was 564 s.

Molecule `Cc1ccc(NC(=O)N2CCC(n3c(-c4ccoc4)nc4cccnc43)C2)cc1` (stereo not drawn) has an RP-LC retention time of 740 s.

`Cc1ccc(-n2cc(C(=O)OCC(=O)OC(C)C)c3ccccc3c2=O)cc1` showed an RP-LC retention time of 1130 s.

In the case of `Cc1nnc2c(=O)n(CC(=O)NCc3cccc(F)c3)c3cccnc3n12`, the RP-LC retention time is reported as 656 s.

In the case of `Cc1cccc(N(C)C(=O)Cn2nc3n(c2=O)CCCC3)c1`, the RP-LC retention time is reported as 669 s.

`Cc1cc(C)cc(NC(=O)CN2CCC(C(=O)NCc3ccccn3)CC2)c1` gave an RP-LC retention time of 548 s.

`O=C1NCCOCCN(C(=O)Nc2ccc3c(c2)OCCO3)[C@@H]2CCCC[C@H]12` gave an RP-LC retention time of 722 s.

`N#Cc1ccc(-c2nc(-c3ccc4c(c3)nnn4CCC(=O)N3CCOCC3)no2)c(F)c1` gave an RP-LC retention time of 674 s.

Work on `CO[C@@H](Cc1ccc(OCCc2nc(-c3ccccc3)oc2C)c2ccsc12)C(=O)O` yielded an RP-LC retention time of 1160 s.

`O=C(CN1CCN(C(=O)N2CCCCC2)CC1)Nc1cc(Cl)ccc1Cl` gave an RP-LC retention time of 675 s.

`CSc1ccccc1NC(=O)c1ccc(-n2cccn2)nn1` gave an RP-LC retention time of 609 s.

For `CCc1ccc(N2CC(c3noc(-c4ccc(OC)cc4OC)n3)CC2=O)cc1` (stereo not drawn), the RP-LC retention time was 1040 s.

In the case of `CC(C)OCCCNC(=O)c1cc2n(n1)CCCN(Cc1ccc(F)cc1)C2=O`, the RP-LC retention time is reported as 795 s.

Source: the METLIN SMRT retention time set (Domingo-Almenara et al. 2019)
